Test results: patent USRE39072E1, “2-aminopropane-1,3-diol compounds, medicinal use thereof, and intermediates in synthesizing the same” (Mitsubishi Pharma Corporation, priority 1997, dated 2006)

Legend:
[1] = Body weight change on allogenic skin graft in rats; assay type: in vivo, rat; conditions: 13 days of consecutive repeat oral administration of 10 mg/kg, rats of allogenic skin graft test (FIG. 2)
Description: (Body weight change on allogenic skin graft in rats)
The changes in body weight in rats of Experimental Example 12 on testing of allogenic skin graft in rats, after 13 days of consecutive repeat oral administration of 10 mg/kg of test compounds are shown in FIG. 2.

[2] = system: allogenic skin graft (WKAH rat to F344 rat); test: Allogenic skin graft in rats, WKAH rat skin to F344 rat; assay type: in vivo; conditions: oral; for mean survival time of skin graft: once a day for 14 days, dose 1 mg/kg or 10 mg/kg (FIG. 1), not stated which
Description: (§1) A full-thickness skin graft (1.5×1.5 cm) of a 4-week-old male WKAH rat or LEW rat is grafted to a graft to a graft bed on the back of a 4-week-old male F344 rat by suture. The graft is covered with a sterile gauze and bound. The bandage is removed 5 days after the grafting and the skin graft is observed daily until it is rejected. […] The number of days from the grafting to rejection is taken as a graft survival days. Test compounds are intraperitoneally, intravenously or orally administered repeatedly once a day for 14 days.
The comparative compound 1 was 2-amino-2-(2-(4-(4-phenylbutyloxy)phenyl)ethyl)propane-1,3-diol disclosed in WO94/08943, comparative compound 2 was 2-amino-2-methyl-2-(2-(4-(4-phenylbutyloxy)phenyl)butanol disclosed in WO96/06068.

[3] = system: allogenic skin graft (LEW rat to F344 rat); test: Allogenic skin graft in rats, LEW rat skin to F344 rat; assay type: in vivo
Description: EXPERIMENTAL EXAMPLE 12 (Prolonging effect of skin graft on allogenic skin graft in rats)
as §1

NC(CO)(CO)CCc1ccc(OCCCCc2ccccc2)cc1 [comparative compound 1, 2-amino-2-(2-(4-(4-phenylbutyloxy)phenyl)ethyl)propane-1,3-diol, reference compound]
change in body weight [1]: a suppressive effect on the gain of the body weight
mean survival time of skin graft [2]: 11.9 ± 0.7 days

NC(CO)(CO)CCc1ccc(C(=O)CCCCc2ccccc2)cc1 [Compound (I-a), 2-amino-2-(2-(4-(1-oxo-5-phenylpentyl)phenyl)ethyl)propane-1,3-diol]
change in body weight [1]: natural gain of body weight as in the control group
prolonging effect on graft survival compared with comparative compound 2 [2]: equivalent prolonging effect
prolonging effect on graft survival days compared to control group and comparative compound 1 group [2]: prolonged graft survival days statistically significantly
mean survival time of skin graft [2]: 16.6 ± 1.2 days
prolonging effect on graft survival compared to control group administered with vehicle alone [3]: statistically significant prolonging effect
mean survival time of skin graft ([3]; dose not stated): ≥ 20 days

CC(N)(CO)CCc1ccc(OCCCCc2ccccc2)cc1 (stereo not shown) [comparative compound 2, reference compound]
change in body weight [1]: a suppressive effect on the gain of the body weight
mean survival time of skin graft [2]: 15.6 ± 1.4 days
